The assay addresses Envelope glycoprotein gp160 (Human immunodeficiency virus 1, UniProt Q6QLK5). Description: cell-free HIV fusion peptide-binding blockers – biochemical, uHTS, fluorescence dequenching, […] (AID 1986).

The source made the active and inactive calls. Rule as the data show it: actives have a measured IC50 and inactives only a lower limit.

Sequence of Envelope glycoprotein gp160 (Q6QLK5 whole entry, the tested form may be a part): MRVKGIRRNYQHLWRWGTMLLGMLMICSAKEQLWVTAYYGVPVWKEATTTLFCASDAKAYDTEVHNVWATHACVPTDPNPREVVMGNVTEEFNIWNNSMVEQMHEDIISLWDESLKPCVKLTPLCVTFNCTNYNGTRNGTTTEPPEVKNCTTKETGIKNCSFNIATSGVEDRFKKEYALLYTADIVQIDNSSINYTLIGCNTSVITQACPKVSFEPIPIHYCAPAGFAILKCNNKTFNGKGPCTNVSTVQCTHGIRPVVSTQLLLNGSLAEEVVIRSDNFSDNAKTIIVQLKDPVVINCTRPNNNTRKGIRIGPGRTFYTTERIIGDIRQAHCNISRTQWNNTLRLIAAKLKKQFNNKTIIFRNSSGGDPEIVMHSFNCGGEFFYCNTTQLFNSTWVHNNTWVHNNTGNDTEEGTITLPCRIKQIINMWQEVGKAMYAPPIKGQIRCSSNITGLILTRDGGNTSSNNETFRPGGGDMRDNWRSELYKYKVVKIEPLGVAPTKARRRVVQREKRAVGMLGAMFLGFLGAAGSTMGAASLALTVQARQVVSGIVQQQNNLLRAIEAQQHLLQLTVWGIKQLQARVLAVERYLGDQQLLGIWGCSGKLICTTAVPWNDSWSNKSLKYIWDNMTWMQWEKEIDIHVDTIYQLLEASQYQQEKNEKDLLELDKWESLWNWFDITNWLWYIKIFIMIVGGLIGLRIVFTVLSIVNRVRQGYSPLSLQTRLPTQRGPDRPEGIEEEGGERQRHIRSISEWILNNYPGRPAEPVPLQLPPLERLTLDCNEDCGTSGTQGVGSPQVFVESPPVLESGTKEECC

In general, IC50 refers to the concentration needed to halve the response being measured. As for `COc1ccc(-c2nn(-c3ccccc3)cc2/C=C\C(=O)Nc2ccc(C(=O)O)cc2)cc1`, the IC50 is 18.3 µM (active).
For the compound `CC1=C(C(=O)Nc2ccccc2)C(c2ccc(Cl)cc2)n2c(s/c(=C/c3cccc(OCC(=O)O)c3)c2=O)=N1` (configuration not stated), the IC50 is 16.8 µM (active).

(Values after ChEMBL document CHEMBL1201862, “PubChem BioAssay data set” (2004).)
